Data from US5434150A, “Condensed 5-membered heterocyclic compounds, processes for preparing them and pharmaceutical preparations containing these compounds” (Dr. Karl Thomae GmbH, priority 1991, dated 1995).
Counter-ions that a name gives are not always drawn. Like-named read-outs stand apart in the source and are kept apart here.

Legend:
[1] = biological target: Human Thrombocytes; assay: Fibrinogen binding to human thrombocytes (fibrinogen binding test)
Method: 1. Fibrinogen Binding to Human Thrombocytes The blood obtained by puncturing an antecubital vein is anticoagulated with trisodium citrate (final concentration: 13 mM) and centrifuged for 10 minutes at 170× g. The supernatant platelet-rich plasma is poured onto a Sepharose 2B column (Pharmacia) and eluted with a solution of 90 mM common salt, 14 mM trisodium citrate, 5 mM glucose and 50 mM tris(hydroxymethyl)aminomethane, adjusted to pH 7.4. The gel-filtered platelets (GFP) appearing before the plasma proteins are used for the binding experiments. 50 μl of a 60 mM calcium chloride solution, 50 μl of a 0.6 mM adenosine diphosphate solution, 100 μl of substance solution or solvent and 50 μl of fibrinogen solution (containing 3 μg of ^125 fibrinogen) are added to 750 μl of GFP and incubated for 20 minutes at ambient temperature. The non-specific binding is determined in the presence of 3 mg/ml of cold fibrinogen. 900 μl of the incubated material are carefully pipetted onto 250 μl of silicon oil (AP 38: AR 20, 1:2 v/v, Wacker Chemie) in Eppendorf tubes and centrifuged for 2 minutes at 10,000× g. The aqueous supernatant and some of the oil are drawn off, the tips of the tubes are cut off together with the platelet pellet and the quantity of bound fibrinogen is determined in a gamma counter. The concentration of substance which brings about a 50% inhibition in fibrinogen binding is determined from a series of concentrations and is given as the IC50 value. | *^125 I fibrogen was replaced by […] |e.

[2] = system: platelet aggregation (platelet-rich plasma); assay: Antithrombotic activity: inhibition of collagen-induced platelet aggregation in platelet-rich plasma (Born and Cross); type: cell-based, human (healthy volunteers); conditions: 50% change in optical density, human platelet-rich plasma, 10 min preincubation
Method: 2. Antithrombotic Activity Method The thrombocyte aggregation is measured using the Born and Cross method (J. Physiol. 170:397 (1964)) in platelet-rich plasma taken from healthy volunteers. To inhibit coagulation the blood is mixed with 3.14% sodium citrate in a ratio by volume of 1:10. Collagen-induced aggregation The pattern of the decrease in optical density of the platelet suspension is photometrically measured and recorded after the addition of aggregation-triggering substance. The rate of aggregation is concluded from the angle of inclination of the density curve. The point on the curve where there is maximum light transmittance is used to calculate the optical density. The amount of collagen used is as small as possible but sufficient to produce an irreversible reaction curve. Standard commercial collagen produced by Hormonchemie of Munich is used. Before the addition of the collagen the plasma is incubated for 10 minutes with the substance at […]. From the measurements obtained an EC50 is determined graphically, indicating a 50% change in the optical density in terms of the inhibition of aggregation.

[3] = *: 125I fibrinogen replaced by 3H-(3S,5S)-5-[(amidino-biphenylyl)-oxymethyl]-carboxymethyl-pyrrolidinone ligand, read-out: Fibrinogen binding test IC50 (values marked *)
[4] = 125I fibrinogen, 50% inhibition of fibrinogen binding, gel-filtered human platelets, ADP, 20 min ambient temperature, read-out: Fibrinogen binding test IC50

IC50 [1, 3]	EC50 [2]	IC50 [1, 4]	Structure (SMILES)
	250 nM	2000 nM	COC(=O)CCNC(=O)c1ccc2c(c1)nc(-c1ccc(C(=N)N)cc1)n2CCc1cc(Br)c(N)c(Br)c1 [3(125), 2-(4-amidino-phenyl)-1-[2-(4-amino-3f5-dibromo-phenyl)-ethyl]-5-[(2-methoxycarbonyl-ethyl)-aminocarbonyl]-benzimidazole]
5500 nM	18000 nM		COC(=O)CCNC(=O)c1ccc2c(c1)nc(-c1ccc(C(=N)N)cc1)n2CCCN1CCS(=O)(=O)CC1 [5(6), 2-(4-amidino-phenyl)-1-[3-(S,S-dioxido-thiomorpholino)-propyl]-5-[(2-methoxycarbonyl-ethyl)-aminocarbonyl]-benzimidazole-hydrochloride]
2500 nM	4100 nM		COC(=O)CCNC(=O)c1ccc2[nH]c(-c3ccc(C(=N)N)cc3)nc2c1 [15(1), 2-(4-amidino-phenyl)-5(6)-[(2-methoxycarbonyl-ethyl)-aminocarbonyl]-benzimidazole-hydrochloride]
22 nM	80 nM		COc1ccc(CCn2c(-c3ccc(C(=N)N)cc3)nc3cc(C(=O)NCCC(=O)O)ccc32)cc1OC [17(2), 2-(4-amidino-phenyl)-5-[(2-carboxy-ethyl)-aminocarbonyl]-1-[2-(3,4-dimethoxy-phenyl)-ethyl]-benzimidazole-dihydrobromide]
170 nM	430 nM		N=C(N)c1ccc(-c2nc3cc(C(=O)NCCC(=O)O)ccc3n2Cc2cccnc2)cc1 [17(3), 2-(4-amidino-phenyl)-5-[(2-carboxy-ethyl)-aminocarbonyl]-1-(3-pyridylmethyl)-benzimidazole-dihydrobromide]
1900 nM	> 100000 nM		CCCCCCCCCCCCCCn1c(-c2ccc(CN)cc2)nc2cc(C(=O)NCCC(=O)O)ccc21 [17(4), 2-(4-aminomethyl-phenyl)-5-[(2-carboxy-ethyl)-aminocarbonyl]-1-n-tetradecyl-benzimidazole-dihydrobromide]
1800 nM	30000 nM		CCCCCCCCCCCCCCn1c(-c2ccc(C(=N)N)cc2)nc2cc(C(=O)NCCC(=O)O)ccc21 [17(6), 2-(4-amidino-phenyl)-5-[(2-carboxy-ethyl)-aminocarbonyl]-1-n-tetradecyl-benzimidazole-dihydrobromide]
	27000 nM	26000 nM	Cn1c(-c2ccc(C(=N)N)cc2)nc2cc(C(=O)N3CCCC(C(=O)O)C3)ccc21 (centres unmarked) [17(10), 2-(4-amidino-phenyl)-5-[(3-carboxy-piperidino)-carbonyl]-1-methyl-benzimidazole-dihydrobromide]
	27000 nM	33000 nM	Cn1c(-c2ccc(C(=N)N)cc2)nc2cc(C(=O)NCCCC(=O)O)ccc21 [Example 1, 2-(4-Amidino-phenyl)-5-[(3-carboxy-propyl)-aminocarbonyl]-1-methyl-benzimidazole]
1700 nM	5700 nM		COc1ccc(CCn2c(-c3ccc(C(=N)N)cc3)nc3cc(C(=O)NCCC(=O)OC(C)C)ccc32)cc1OC [Example 13, 2-(4-Amidino-phenyl)-1-[2-(3,4-dimethoxy-phenyl)-ethyl]-5-[(2-isopropyloxycarbonyl-ethyl)-aminocarbonyl]-benzimidazole-dihydrochloride]

Further lines, the compound ahead of its results:

Structure (SMILES)	IC50 [1, 3]	EC50 [2]	IC50 [1, 4]
COC(=O)CCNC(=O)c1cc2nc(-c3ccc(C(=N)N)cc3)n(C)c2cc1N(C)CC(=O)OC [3(124), 2-(4-amidino-phenyl)-5-[(2-methoxycarbonyl-ethyl)-aminocarbonyl]-6-(N-methoxycarbonylmethyl-methylamino)-1-methyl-benzimidazole-hydrochloride]	17000 nM	2800 nM	
COC(=O)CCNC(=O)c1ccc2c(c1)nc(-c1ccc(C(=N)N)cc1)n2CCC(c1ccccc1)c1ccccc1 [3(126), 2-(4-amidino-phenyl)-1-(3,3-diphenyl-propyl)-5-[(2-methoxycarbonyl-ethyl)-aminocarbonyl]-benzimidazole]		9900 nM	2200 nM
COC(=O)CCNC(=O)c1cc2nc(-c3ccc(C(=N)N)cc3)n(C)c2cc1N(C)C(=O)OCC(C)C [3(130), 2-(4-amidino-phenyl)-6-(N-isobutyloxycarbonyl-N-methyl-amino)-5-[(2-methoxycarbonyl-ethyl)-aminocarbonyl]-1-methyl-benzimidazole]		160 nM	14000 nM
COC(=O)CCCCn1c(=O)c2nc(-c3ccc(C(=N)N)cc3)n(C)c2n(C)c1=O [3(141), 8-(4-amidino-phenyl)-3,9-dimethyl-1-(4-methoxycarbonyl-butyl)-xanthine hyd rochloride-hydroacetate]		80 nM	140 nM
N=C(N)c1ccc(-c2nc3cc(C(=O)NCCC(=O)OC4CCCCC4)ccc3n2CCCCc2ccccc2)cc1 [13(3), 2-(4-amidino-phenyl)-5-[(2-cyclohexyloxycarbonyl-ethyl)-aminocarbonyl]-1-(4-phenyl-butyl)-benzimidazole dihydrochloride]	1400 nM	4300 nM	
N=C(N)c1ccc(-c2nc3cc(C(=O)NCCC(=O)OCC4CCCCC4)ccc3n2CCCCc2ccccc2)cc1 [13(6), 2-(4-amidino-phenyl)-5-[(2-cyclohexylmethyloxy-carbonyl-ethyl)-aminocarbonyl]-1-(4-phenyl-butyl)-benzimidazole dihydrochloride]	130 nM	980 nM	
Cn1c(-c2ccc(CN)cc2)nc2cc(C(=O)NCCC(=O)O)ccc21 [17(1), 2-(4-aminomethyl-phenyl)-5-[(2-carboxy-ethyl)-aminocarbonyl]-1-methyl-benzimidazole-dihydrobromide]		1530 nM	700 nM
COc1ccc(CCn2c(-c3ccc(CN)cc3)nc3cc(C(=O)NCCC(=O)O)ccc32)cc1OC [17(5), 2-(4-aminomethyl-phenyl)-5-[(2-carboxy-ethyl)-aminocarbonyl]-1-[2-(3,4-dimethoxy-phenyl)-ethyl]-benzimidazole-dihydrobromide]	370 nM	2130 nM	
N=C(N)c1ccc(-c2nc3cc(C(=O)NCCC(=O)O)ccc3n2CCCCc2ccccc2)cc1 [17(7), 2-(4-amidino-phenyl)-5-[(2-carboxy-ethyl)-aminocarbonyl]-1-(4-phenyl-butyl)-benzimidazole-dihydrobromide]	5.4 nM	290 nM	
N=C(N)c1ccc(-c2nc3cc(C(=O)NCCC(=O)O)ccc3n2CCc2cc(Br)c(N)c(Br)c2)cc1 [17(8), 2-(4-amidino-phenyl)-1-[2-(4-amino-3,5-dibromo-phenyl)-ethyl]-5-[(2-carboxy-ethyl)-aminocarbonyl]-benzimidazole-dihydrobromide]	47 nM	350 nM	
N=C(N)c1ccc(-c2nc3cc(C(=O)NCCC(=O)O)ccc3n2CCC(c2ccccc2)c2ccccc2)cc1 [17(9), 2-(4-amidino-phenyl)-5-[(2-carboxy-ethyl)-aminocarbonyl]-1-(3,3-diphenyl-propyl)-benzimidazole-dihydrobromide]	9.5 nM	1140 nM	
Cn1c(-c2ccc(C(=N)N)cc2)nc2cc(C(=O)NCCC(=O)O)cnc21 [17(13), 2-(4-amidino-phenyl)-6-[(2-carboxy-ethyl)-aminocarbonyl]-3-methyl-imidazo[4,5-b]pyridine-dihydrobromide]	20 nM	40 nM	
COC(=O)CCNC(=O)c1ccc2c(c1)nc(-c1ccc(C(=N)N)cc1)n2CCCN1CC[S+]([O-])CC1 [Example 5, 2-(4-Amidino-phenyl)-5-[(2-methoxycarbonyl-ethyl)-aminocarbonyl]-1-[3-(S-oxido-thiomorpholino)-propyl]-benzimidazole-hydrochloride]	15000 nM	43000 nM	
COC(=O)CCNC(=O)c1ccc2c(c1)nc(-c1ccc(CN)cc1)n2CCCN [Example 6, 2-(4-Aminomethyl-phenyl)-1-(3-amino-propyl)-5-[(2-methoxycarbonyl-ethyl)-aminocarbonyl]-benzimidazole]		3700 nM	4000 nM
N=C(N)c1ccc(-c2nc3cc(C(=O)NCCC(=O)O)ccc3n2CCN2CCNCC2)cc1 [Example 15, 2-(4-Amidino-phenyl)-5-[(2-carboxy-ethyl)-aminocarbonyl]-1-(2-piperazino-ethyl)-benzimidazole-hydrogen acetate]		40 nM	28 nM
